# Read-outs that look alike come from different tables or passages of the source.
# Experiments:
# Assay type in all cases: cell-based
# Escherichia coli 311 = test: In vitro MIC, agar dilution, Escherichia coli 311; conditions: 35° C., 18 hours, nutrient agar, read-out: Minimal Inhibitory Concentration
# Experimental: (§1) The in vitro activity of representative compounds of the present invention are given in the following Table I in terms of minimal inhibitory concentration. The test used was the standard agar dilution test using a Steers multiple inocula replicator and incubating at 35° C. for 18 hours in conventional nutrient agar.
# Serratia K101 = test: In vitro MIC, agar dilution, Serratia K101; conditions: read-out: Minimal Inhibitory Concentration
# Experimental: as §1
# [1] = tested on: Klebsiella pneumoniae MA75-1; test: In vitro MIC, agar dilution, Klebsiella pneumoniae MA75-1; conditions: read-out: Minimal Inhibitory Concentration
# Experimental: as §1
# Klebsiella pneumoniae AD = test: In vitro MIC, agar dilution, Klebsiella pneumoniae AD; conditions: read-out: Minimal Inhibitory Concentration
# Experimental: as §1
# [2] = tested on: Enterobacter cloacae MA75-1; test: In vitro MIC, agar dilution, Enterobacter cloacae MA75-1; conditions: Enterobacter cloacae, MA751, 18 h, read-out: Minimal Inhibitory Concentration
# Experimental: as §1
# Proteus morganii K72 = test: In vitro MIC, agar dilution, Proteus morganii K72; conditions: Morganella morganii, read-out: Minimal Inhibitory Concentration
# Experimental: as §1
# Enterococcus SM77-15 = test: In vitro MIC, agar dilution, Enterococcus SM77-15; conditions: read-out: Minimal Inhibitory Concentration
# Experimental: as §1
# [3] = tested on: Enterobacter cloacae OSU75-2; test: In vitro MIC, agar dilution, Enterobacter cloacae OSU75-2; conditions: read-out: Minimal Inhibitory Concentration
# Experimental: as §1
# Proteus rettgeri N76-1 = test: In vitro MIC, agar dilution, Proteus rettgeri N76-1; conditions: Providencia rettgeri, read-out: Minimal Inhibitory Concentration
# Experimental: as §1
# [4] = tested on: Klebsiella pneumoniae W75-4; test: In vitro MIC, agar dilution, Klebsiella pneumoniae W75-4; conditions: read-out: Minimal Inhibitory Concentration
# Experimental: as §1
# Escherichia coli OSU75-1 = test: In vitro MIC, agar dilution, Escherichia coli OSU75-1; conditions: OSU751, 35° C., 18 hours, nutrient agar, read-out: Minimal Inhibitory Concentration
# Experimental: as §1
# [5] = tested on: Klebsiella pneumoniae UR76-1; test: In vitro MIC, agar dilution, Klebsiella pneumoniae UR76-1; conditions: read-out: Minimal Inhibitory Concentration
# Experimental: as §1
# Proteus vulgaris N74-1 = test: In vitro MIC, agar dilution, Proteus vulgaris N74-1; conditions: N741, 35° C., 18 hours, nutrient agar, read-out: Minimal Inhibitory Concentration
# Experimental: as §1
# [6] = tested on: Staphylococcus aureus Q74-1; test: In vitro MIC, agar dilution, Staphylococcus aureus Q74-1; conditions: read-out: Minimal Inhibitory Concentration
# Experimental: as §1
# [7] = tested on: Escherichia coli ESS22-31; test: In vitro MIC, agar dilution, Escherichia coli ESS22-31; conditions: read-out: Minimal Inhibitory Concentration
# Experimental: as §1
# [8] = tested on: Klebsiella pneumoniae W75-2; test: In vitro MIC, agar dilution, Klebsiella pneumoniae W75-2; conditions: read-out: Minimal Inhibitory Concentration
# Experimental: as §1
# [9] = tested on: Pseudomonas aeruginosa UCS 76-13; test: In vitro MIC, agar dilution, Pseudomonas aeruginosa UCS 76-13; conditions: read-out: Minimal Inhibitory Concentration
# Experimental: as §1
# [10] = tested on: Staphylococcus aureus Q74-6; test: In vitro MIC, agar dilution, Staphylococcus aureus Q74-6; conditions: read-out: Minimal Inhibitory Concentration
# Experimental: as §1
# [11] = tested on: Pseudomonas aeruginosa G236; test: In vitro MIC, agar dilution, Pseudomonas aeruginosa G236; conditions: read-out: Minimal Inhibitory Concentration
# Experimental: as §1
# [12] = tested on: Enterobacter aerogenes UR76-3; test: In vitro MIC, agar dilution, Enterobacter aerogenes UR76-3; conditions: Klebsiella aerogenes, read-out: Minimal Inhibitory Concentration
# Experimental: as §1
# Serratia marcens K77-1 = test: In vitro MIC, agar dilution, Serratia marcens K77-1; conditions: read-out: Minimal Inhibitory Concentration
# Experimental: as §1
# Serratia marcens QHC77-2 = test: In vitro MIC, agar dilution, Serratia marcens QHC77-2; conditions: read-out: Minimal Inhibitory Concentration
# Experimental: as §1
# Escherichia coli W75-1 = test: In vitro MIC, agar dilution, Escherichia coli W75-1; conditions: W751, 35° C., 18 hours, nutrient agar, read-out: Minimal Inhibitory Concentration
# Experimental: as §1
# [13] = tested on: Pseudomonas aeruginosa PD05141; test: In vitro MIC, agar dilution, Pseudomonas aeruginosa PD05141; conditions: read-out: Minimal Inhibitory Concentration
# Experimental: as §1
# [14] = tested on: Pseudomonas aeruginosa 12-4-4; test: In vitro MIC, agar dilution, Pseudomonas aeruginosa 12-4-4; conditions: read-out: Minimal Inhibitory Concentration
# Experimental: as §1
smiles,measurement,setting,value
"CCN1CCN(C(=O)NC(C(=O)NC2C(=O)N3C(C(=O)O)=C(CSc4n[nH]c(-n5cccn5)n4)CS[C@H]23)c2ccc(O)cc2)C(=O)C1=O (stereo partly shown) [Compound VI, 7-[2-(4-Ethyl-2,3-dioxo-1-piperazinecarboxamido)-2-(p-hydroxyphenyl)acetamido]-3-[5-(1-pyrazolyl)-1,2,4-triazol-3-ylthiomethyl]-3-cephem-4-carboxylic acid]",MIC,Escherichia coli 311,1 µg/mL
same,MIC,"Serratia K101; Serratia K101, agar dilution, 35° C., 18 hours, nutrient agar",128 µg/mL
same,MIC,"[1]; MA751, Klebsiella pneumoniae MA75-1, agar dilution, 35° C., 18 hours, nutrient agar",2 µg/mL
same,MIC,"Klebsiella pneumoniae AD; Klebsiella pneumoniae AD, agar dilution, 35° C., 18 hours, nutrient agar",0.5 µg/mL
same,MIC,[2],> 128 µg/mL
same,MIC,"Proteus morganii K72; Proteus morganii K72, agar dilution, 35° C., 18 hours, nutrient agar",32 µg/mL
same,MIC,"Enterococcus SM77-15; SM7715, Enterococcus SM77-15, agar dilution, 35° C., 18 hours, nutrient agar",> 128 µg/mL
same,MIC,"[3]; OSU752, Enterobacter cloacae OSU75-2, agar dilution, 35° C., 18 hours, nutrient agar",64 µg/mL
same,MIC,"Proteus rettgeri N76-1; N761, Proteus rettgeri N76-1, agar dilution, 35° C., 18 hours, nutrient agar",16 µg/mL
same,MIC,"[4]; W754, Klebsiella pneumoniae W75-4, agar dilution, 35° C., 18 hours, nutrient agar",32 µg/mL
same,MIC,Escherichia coli OSU75-1,2 µg/mL
same,MIC,"[5]; UR761, Klebsiella pneumoniae UR76-1, agar dilution, 35° C., 18 hours, nutrient agar",16 µg/mL
same,MIC,Proteus vulgaris N74-1,16 µg/mL
same,MIC,"[6]; Q741, Staphylococcus aureus Q74-1, agar dilution, 35° C., 18 hours, nutrient agar",4 µg/mL
same,MIC,"[7]; ESS2231, Escherichia coli ESS22-31, agar dilution, 35° C., 18 hours, nutrient agar",≤ 0.12 µg/mL
same,MIC,"[8]; W752, Klebsiella pneumoniae W75-2, agar dilution, 35° C., 18 hours, nutrient agar",4 µg/mL
same,MIC,"[9]; UCS7613, Pseudomonas aeruginosa UCS 76-13, agar dilution, 35° C., 18 hours, nutrient agar",64 µg/mL
same,MIC,"[10]; Q746, Staphylococcus aureus Q74-6, agar dilution, 35° C., 18 hours, nutrient agar",8 µg/mL
same,MIC,"[11]; Pseudomonas aeruginosa G236, agar dilution, 35° C., 18 hours, nutrient agar",32 µg/mL
same,MIC,"[12]; UR763, Enterobacter aerogenes UR76-3, agar dilution, 35° C., 18 hours, nutrient agar",0.5 µg/mL
same,MIC,"Serratia marcens K77-1; K771, Serratia marcens K77-1, agar dilution, 35° C., 18 hours, nutrient agar",> 128 µg/mL
same,MIC,"Serratia marcens QHC77-2; QHC772, Serratia marcens QHC77-2, agar dilution, 35° C., 18 hours, nutrient agar",> 128 µg/mL
same,MIC,Escherichia coli W75-1,2 µg/mL
same,MIC,"[13]; Pseudomonas aeruginosa PD05141, agar dilution, 35° C., 18 hours, nutrient agar",64 µg/mL
same,MIC,"[14]; 1244, Pseudomonas aeruginosa 12-4-4, agar dilution, 35° C., 18 hours, nutrient agar",16 µg/mL
"CC(=O)OCC1=C(C(=O)O)N2C(=O)[C@@H](NC(=O)Cc3cccs3)[C@H]2SC1 [Compound X, Cephalothin, reference compound]",MIC,Escherichia coli 311,4 µg/mL
same,MIC,"Serratia K101; Serratia, K101, 18 h",> 128 µg/mL
same,MIC,"[1]; Klebsiella pneumoniae, MA751, 18 h",1 µg/mL
same,MIC,"Klebsiella pneumoniae AD; Klebsiella pneumoniae, 18 h",2 µg/mL
same,MIC,[2],> 128 µg/mL
same,MIC,"Proteus morganii K72; K72, 18 h",> 128 µg/mL
same,MIC,"Enterococcus SM77-15; Enterococcus, SM7715, 18 h",32 µg/mL
same,MIC,"[3]; Enterobacter cloacae, OSU752, 18 h",> 128 µg/mL
same,MIC,"Proteus rettgeri N76-1; N761, 18 h",> 128 µg/mL
same,MIC,"[4]; Klebsiella pneumoniae, W754, 18 h",8 µg/mL
same,MIC,Escherichia coli OSU75-1,8 µg/mL
same,MIC,"[5]; Klebsiella pneumoniae, UR761, 18 h",8 µg/mL
same,MIC,"[6]; Staphylococcus aureus, Q741, 18 h",≤ 0.06 µg/mL
same,MIC,"[7]; Escherichia coli, ESS2231, 18 h",≤ 0.06 µg/mL
same,MIC,"[8]; Klebsiella pneumoniae, W752, 18 h",2 µg/mL
same,MIC,"[9]; Pseudomonas aeruginosa, UCS7613, 18 h",> 128 µg/mL
same,MIC,"[10]; Staphylococcus aureus, Q746, 18 h",0.12 µg/mL
same,MIC,"[11]; Pseudomonas aeruginosa, G236, 18 h",> 128 µg/mL
same,MIC,"[12]; UR763, 18 h",2 µg/mL
same,MIC,"Serratia marcens K77-1; Serratia, K771, 18 h",> 128 µg/mL
same,MIC,"Serratia marcens QHC77-2; Serratia, QHC772, 18 h",> 128 µg/mL
same,MIC,Escherichia coli W75-1,8 µg/mL
same,MIC,"[13]; Pseudomonas aeruginosa, PD05141, 18 h",> 128 µg/mL
same,MIC,"[14]; Pseudomonas aeruginosa, 1244, 18 h",> 128 µg/mL

# Reference: patent publication US4336375A, “Cephalosporanic acid derivatives” (American Cyanamid Company, priority 1980, dated 1982)
